Test [1] has as its system Trichostrongylus colubriformis. The test is described as follows: In vivo nematode test Trichostrongylus colubriformis/sheep. The conditions noted are these: experimentally infected sheep, treated after prepatent period; pure active compound orally and/or intravenously; dose at which nematode egg excretion with the faeces stops completely. Here is the method:
Trichostrongylus colubriformis/Sheep
Sheep which have been infected experimentally with Trichostrongylus colubriformis were treated after the prepatent period had elapsed. The active compounds in the form of the pure active compound were administered orally and/or intravenously.
(§1) The degree of effectiveness is determined by quantitative determination of the nematode eggs excreted with the faeces before and after the treatment.
(§2) If, after the treatment, egg excretion stops completely, the nematodes were aborted or damaged to such an extent that they no longer produce eggs (dosis effectiva).

The subject of another test is Haemonchus contortus. Briefly: In vivo nematode test Haemonchus contortus/sheep. The following applies: experimentally infected sheep, treated after prepatent period; pure active compound orally and/or intravenously; dose at which nematode egg excretion with the faeces stops completely. On the procedure:
Haemonchus contortus/Sheep
Sheep which have been infected experimentally with Haemonchus contortus were treated after the prepatent period had elapsed. The active compounds in the form of the pure active compound were administered orally and/or intravenously.
as §1, §2

Regarding `CC[C@H](C)[C@H]1C(=O)O[C@H](C)C(=O)N(C)[C@@H](C)C(=O)O[C@H](C)C(=O)N(C)[C@@H]([C@@H](C)CC)C(=O)O[C@H](C)C(=O)N1C` [Example 1, Cyclo(-N-methyl-L-alanyl-D-lactyl-N-methyl-L-isoleucyl-D-lactyl-N-methyl-L- isoleucyl-D-lactyl-)], the “Dosis effectiva” value (in test [1]; with Haemonchus contortus) was 10 mg/kg in each case.

For the origin of these results see US5624897A, “Cyclic depsipeptides having 18 ring atoms, and their use for combating endoparasites” (Bayer Aktiengesellschaft, priority 1993, dated 1997).
